Source: ChEMBL document CHEMBL4673248, “Discovery and Characterization of BAY 1214784, an Orally Available Spiroindoline Derivative Acting as a Potent and Selective Antagonist of the Human Gonadotropin-Releasing Hormone Receptor as Proven in a First-In-Human Study in Postmenopausal Women” (J Med Chem, 2020)
pIC50: −log10 of the molar value.

Key:
[1] = target: T1, Gonadotropin-releasing hormone receptor (Homo sapiens, UniProt P30968); assay: Antagonist activity at human GnRH receptor expressed in CHO-K1 cells assessed as inhibition of LHRH-induced response preincubated for 20 mins followed by LHRH addition and measured after 60 mins by TR-FRET assay; assay type: cell-based
T1 sequence (P30968 whole entry): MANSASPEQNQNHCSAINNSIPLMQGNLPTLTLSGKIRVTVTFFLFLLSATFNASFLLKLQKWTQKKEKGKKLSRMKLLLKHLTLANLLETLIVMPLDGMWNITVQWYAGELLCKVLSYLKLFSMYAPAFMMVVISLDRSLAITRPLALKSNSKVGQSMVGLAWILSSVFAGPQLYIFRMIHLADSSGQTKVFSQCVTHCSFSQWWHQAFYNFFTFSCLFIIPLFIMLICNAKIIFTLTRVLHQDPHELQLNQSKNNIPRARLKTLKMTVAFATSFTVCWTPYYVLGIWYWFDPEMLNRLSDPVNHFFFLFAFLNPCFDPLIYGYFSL

[2] = target: T1, Gonadotropin-releasing hormone receptor; assay: Antagonist activity at human GnRH receptor expressed in CHO-K1 cells assessed as inhibition of buserelin-induced response preincubated for 20 mins followed by buserelin addition and measured after 60 mins by TR-FRET assay; assay type: cell-based

SMILES | pIC50 [1] | pIC50 [2]
N=S1(=O)CCC2(CC1)c1cc(NC(=O)c3cccnc3)ccc1N(S(=O)(=O)c1ccc(F)cc1)C2C1CC1 (stereo in doubt; form 1) | 7.49 | 7.23
CC(=O)N1CCC2(CC1)c1cc(C(=O)NCc3ccccc3Cl)ccc1N(S(=O)(=O)c1ccc(F)cc1)C2C (stereo in doubt; form 2) | 7.68 | –
CC(=O)N1CCC2(CC1)c1cc(C(=O)NCc3ccccc3Cl)ccc1N(S(=O)(=O)c1ccccc1)C2C (racemic) | 7.28 | 6.88
C=CCC1N(S(=O)(=O)c2ccc(F)cc2)c2ccc(C(=O)NCc3ccccc3Cl)cc2C12CCN(C(C)=O)CC2 (racemic) | 8.00 | 7.66
O=C(NCc1ncccc1Cl)c1ccc2c(c1)C1(CCS(=O)(=O)CC1)C(C1CC1)N2S(=O)(=O)c1ccc(F)cc1 (racemic) | 7.05 | 6.65
CC(=O)N1CCC2(CC1)c1cc(C(=O)NCc3ccccc3Cl)ccc1N(S(=O)(=O)c1ccc(F)cc1)C2C1CC1 (racemic) | 7.62 | 7.33
CC(=O)N1CCC2(CC1)c1cc(C(=O)NCc3ccccc3Cl)ccc1N(C(=O)c1ccc(F)cc1)C2C (racemic) | 4.75 | < 4.70
CC(=O)N1CCC2(CC1)c1cc(NC(=O)c3cccnc3)ccc1N(S(=O)(=O)c1ccc(F)cc1)C2C1CC1 (racemic) | 7.47 | 7.17
CC1N(S(=O)(=O)c2ccc(F)cc2)c2ccc(NC(=O)c3cccnc3)cc2C12CCOCC2 (racemic) | 7.28 | 6.85
O=C(NCc1ncc(C(F)(F)F)cc1Cl)c1ccc2c(c1)C1(CCS(=O)(=O)CC1)C(C1CC1)N2S(=O)(=O)c1ccc(F)cc1 (racemic) | 7.70 | 7.36
O=C(Nc1ccc2c(c1)C1(CC[S+]([O-])CC1)C(C1CC1)N2S(=O)(=O)c1ccc(F)cc1)c1cccnc1 (centres undefined) | 7.74 | 7.44
CC(=O)N1CCC2(CC1)c1cc(C(=O)NCc3ccccc3)ccc1N(S(=O)(=O)c1ccc(F)cc1)C2C1CC1 (racemic) | 6.68 | 6.26
CC(=O)N1CCC2(CC1)CN(S(=O)(=O)c1ccc(F)cc1)c1ccc(C(=O)NCc3ccccc3Cl)cc12 | 6.38 | 5.75
O=C(Nc1ccc2c(c1)C1(CCS(=O)(=O)CC1)C(C1CC1)N2S(=O)(=O)c1ccc(F)cc1)c1cccnc1 (centres undefined) | 7.70 | 7.35
CC(=O)N1CCC2(CC1)c1cc(C(=O)NCc3ccc(F)cc3Cl)ccc1N(S(=O)(=O)c1ccc(F)cc1)C2C1CC1 (racemic) | 7.42 | 7.11
CC(=O)N1CCC2(CC1)c1cc(C(=O)NC3(c4ccccc4Cl)CC3)ccc1N(S(=O)(=O)c1ccc(F)cc1)C2C1CC1 (racemic) | 6.79 | 5.98
CC(=O)N1CCC2(CC1)c1cc(C(=O)NCc3ccccc3Cl)ccc1N(Cc1ccc(F)cc1)C2C (racemic) | 4.89 | 4.74
CC(=O)N1CCC2(CC1)c1cc(C(=O)NC3(c4ccc(Cl)cc4)CC3)ccc1N(S(=O)(=O)c1ccc(F)cc1)C2C1CC1 (racemic) | 7.25 | 7.04
CC(=O)N1CCC2(CC1)c1cc(NC(=O)c3cccc(F)c3)ccc1N(S(=O)(=O)c1ccc(F)cc1)C2C1CC1 (racemic) | 8.00 | 7.74
N=S1(=O)CCC2(CC1)c1cc(NC(=O)c3cccnc3)ccc1N(S(=O)(=O)c1ccc(F)cc1)C2C1CC1 (stereo in doubt; form 2) | 7.89 | 7.59
O=C(NCc1ncc(C(F)(F)F)cc1Cl)c1ccc2c(c1)C1(CCS(=O)(=O)CC1)C(C1CC1)N2S(=O)(=O)c1ccc(F)cc1 (stereo in doubt) | – | 5.61
O=C(NCc1ccccn1)c1ccc2c(c1)C1(CCS(=O)(=O)CC1)C(C1CC1)N2S(=O)(=O)c1ccc(F)cc1 (racemic) | 6.61 | 6.04
O=C(Nc1ccc2c(c1)C1(CCC(O)(C(F)(F)F)CC1)C(C1CC1)N2S(=O)(=O)c1ccc(F)cc1)c1cccnc1 (centres undefined) | 7.11 | 6.64
